# Measurements as given in patent EP4603105A1, “PHARMACEUTICAL COMPOSITION CONTAINING CYCLIC COMPOUND HAVING SELECTIVE KRAS INHIBITORY EFFECT AGAINST HRAS AND NRAS” (CHUGAI SEIYAKU KABUSHIKI KAISHA, priority 2022, dated 2024).
# Where a SMILES comes first, the peptide text is derived from it. Bridges are numbered along the chain shown (N, C = ends). [ ]: non-standard residue; d: D form. The star is where a group is joined. hPhe(3-Cl-4-CF3) = N[C@@H](CCc1ccc(C(F)(F)F)c(Cl)c1)C(=O)O; NPrPhe(4-CF3) = CCCN[C@@H](Cc1ccc(C(F)(F)F)cc1)C(=O)O; NMeGly(cPent) = CN[C@H](C(=O)O)C1CCCC1; NMeL = CN[C@@H](CC(C)C)C(=O)O; Morpholide = C1CN(*)CCO1; Aze = O=C(O)[C@@H]1CCN1; Ac4c = NC1(C(=O)O)CCC1; Sar = CNCC(=O)O
# Columns and labels:
# [1] = tested on: human lung cancer strain NCI-H441; format: cell-based
# In short: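 Proliferation was scored by […] measured after the reagent was added to cultures kept at 37°C in 5% carbon dioxide.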
# [2] = target: GDP-bound NRAS wild-type protein (Homo sapiens, UniProt P01111); assay: Binding to NRAS by surface plasmon resonance (SPR), KD and KD ratio to KRAS
# In short: (§1)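 SPR, 30°C: Avi-biotin RAS·GDP captured via Biotin CAPture (~100–300 RU); running buffer HBS pH 7.4, 1 mM DTT, 10 mM MgCl2, 0.01% Tween 20, 10 µM GDP, 4% DMSO. Single-cycle kinetics, 100 µL/min, 75 s injections; 1:1 model → KD.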
# HRAS wild-type protein = HRAS wild-type protein (Homo sapiens, UniProt P01112); assay: Binding to HRAS by surface plasmon resonance (SPR), KD and KD ratio to KRAS
# In short: as §1
# [3] = target: GDP-bound KRAS wild-type protein (Homo sapiens, UniProt P01116); assay: Binding to KRAS by surface plasmon resonance (SPR), dissociation constant KD; conditions: 1:1 binding model
# In short: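 GDP-bound biotin-Avi RAS captured at ~100–300 RU, 30°C, pH 7.4 HBS containing 10 µM GDP, 10 mM MgCl2, 1 mM DTT, 0.01% Tween 20 and 4% DMSO. KD by 1:1 fitting.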
# [4] = ratio of KD for GDP-bound NRAS wild-type protein to KD for KRAS
# [5] = ratio of KD for HRAS wild-type protein to KD for KRAS
# GDP-bound NRAS wild-type protein, sequence (P01111 whole entry): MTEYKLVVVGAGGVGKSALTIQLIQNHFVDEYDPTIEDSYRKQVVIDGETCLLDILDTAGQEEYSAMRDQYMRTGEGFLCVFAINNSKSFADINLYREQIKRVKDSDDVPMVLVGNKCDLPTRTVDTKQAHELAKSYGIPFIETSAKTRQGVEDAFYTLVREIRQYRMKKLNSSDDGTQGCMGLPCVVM
# GDP-bound KRAS wild-type protein, sequence (P01116 1-188 isoform P01116-2): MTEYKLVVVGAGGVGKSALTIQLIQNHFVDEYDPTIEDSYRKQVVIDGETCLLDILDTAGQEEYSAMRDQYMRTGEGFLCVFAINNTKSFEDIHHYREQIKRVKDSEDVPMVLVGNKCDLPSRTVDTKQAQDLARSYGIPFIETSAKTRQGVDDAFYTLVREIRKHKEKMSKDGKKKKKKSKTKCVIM
# HRAS wild-type protein, sequence (P01112 whole entry): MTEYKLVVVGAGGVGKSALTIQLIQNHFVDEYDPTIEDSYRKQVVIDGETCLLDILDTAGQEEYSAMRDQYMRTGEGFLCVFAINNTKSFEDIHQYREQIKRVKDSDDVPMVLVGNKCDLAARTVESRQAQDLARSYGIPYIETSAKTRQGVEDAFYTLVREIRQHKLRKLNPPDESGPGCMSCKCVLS
SMILES,IC50 [1] [nM],Kd [3] [nM],Kd ([3]; Single Cycle Kinetics) [nM],"NRAS /KRAS [2, 4]",HRAS /KRAS (HRAS wild-type protein; [5]),NRAS /KRAS ([2]; ratio of the KD value with respect to GDP-bound NRAS wild-type protein to the KD value with respect to KRAS),HRAS /KRAS (HRAS wild-type protein; ratio of the KD value with respect to HRAS wild-type protein to the KD value with respect to KRAS),NRAS /KRAS ([2]; ratio of KD value for GDP-bound NRAS wild-type protein to KD value for KRAS (SPR)),HRAS /KRAS (HRAS wild-type protein; ratio of KD value for HRAS wild-type protein to KD value for KRAS (SPR))
CCC[C@H]1C(=O)N[C@@H](C2CCC2)C(=O)N(C)CC(=O)N(C)[C@H]2C/C=C\CCN(C2=O)[C@@H](Cc2ccc(C)cc2)C(=O)N(C)CC(=O)N[C@@H](CCc2ccc(C(F)(F)F)c(F)c2)C(=O)N2C[C@H](OCC)C[C@H]2C(=O)NC2(CC(C)(C)C2)C(=O)N(C)[C@@H](C2CCC2)C(=O)N(C)[C@H](C(=O)N(C)C)CC(=O)N1C [PP2242],178,–,1.8,–,–,A (a compound having 10 or more and less than 20 is denoted as A),A (a compound having 10 or more and less than 20 is denoted as A),–,–
CCO[C@@H]1C[C@H]2C(=O)NC3(CC(C)(C)C3)C(=O)N(C)[C@@H](C3CCCC3)C(=O)N(C)[C@H](C(=O)N(C)C)CC(=O)N(C)[C@@H]([C@H](C)OC)C(=O)N[C@@H]([C@@H](C)CC)C(=O)N3CCC[C@H]3C(=O)N(C)[C@H]3C/C=C\CCN(C3=O)[C@@H](Cc3ccc(C(F)(F)F)cc3)C(=O)N(C)CC(=O)N[C@@H](CCc3cc(F)c(C(F)(F)F)c(F)c3)C(=O)N2C1 [PP3181],51,0.96,–,A (a compound having 10 or more and less than 20 is denoted as A),B (a compound having 3 or more and less than 10 is denoted as B),–,–,–,–
CCCN1C(=O)CN(C)C(=O)[C@@H]2CCN2C(=O)[C@H]([C@@H](C)CC)NC(=O)[C@H](CC(C)C)N(C)C(=O)C[C@@H](C(=O)N2CCOCC2)NC(=O)[C@H](C2CCCC2)N(C)C(=O)C2(CCC2)NC(=O)[C@@H]2CCCN2C(=O)[C@H](CCc2ccc(C(F)(F)F)c(Cl)c2)NC(=O)CN(C)C(=O)[C@@H]1Cc1ccc(C(F)(F)F)cc1 [PP0338] ([NMeL]I[Aze][Sar][NPrPhe(4-CF3)][Sar][hPhe(3-Cl-4-CF3)]P[Ac4c][NMeGly(cPent)]D-Morpholide; lactam N-11),296,3.6,–,B (a compound having 3 or more and less than 10 is denoted as B),B (a compound having 3 or more and less than 10 is denoted as B),–,–,–,–
CCO[C@@H]1C[C@H]2C(=O)NC3(CC(C)(C)C3)C(=O)N(C)[C@@H](C3CCCC3)C(=O)N(C)[C@H](C(=O)N(C)CC)CC(=O)N(C)[C@@H](CC(C)C)C(=O)N[C@@H]([C@@H](C)CC)C(=O)N(C)CC(=O)N(C)[C@H]3C/C=C\CCN(C3=O)[C@@H](Cc3ccc(C(F)F)cc3)C(=O)N(C)CC(=O)N[C@@H](CCc3ccc4c(c3)CCC4(F)F)C(=O)N2C1 [PP3152],620,2,–,AA (a compound having 20 or more is denoted as AA),A (a compound having 10 or more and less than 20 is denoted as A),–,–,–,–

# The next compounds have a lower IC50 [1] than those just listed; values first:
IC50 [1] [nM],Kd [3] [nM],Kd ([3]; Single Cycle Kinetics) [nM],SMILES,"NRAS /KRAS [2, 4]",HRAS /KRAS (HRAS wild-type protein; [5]),NRAS /KRAS ([2]; ratio of the KD value with respect to GDP-bound NRAS wild-type protein to the KD value with respect to KRAS),HRAS /KRAS (HRAS wild-type protein; ratio of the KD value with respect to HRAS wild-type protein to the KD value with respect to KRAS),NRAS /KRAS ([2]; ratio of KD value for GDP-bound NRAS wild-type protein to KD value for KRAS (SPR)),HRAS /KRAS (HRAS wild-type protein; ratio of KD value for HRAS wild-type protein to KD value for KRAS (SPR))
18.5,0.12,–,CCO[C@@H]1C[C@H]2C(=O)NC3(CC(C)(C)C3)C(=O)N(C)[C@@H](C3CCCC3)C(=O)N(C)[C@H](C(=O)N(C)C)CC(=O)N(C)[C@@H]([C@H](C)OC)C(=O)N[C@@H]([C@@H](C)CC)C(=O)N(C)CC(=O)N(C)[C@H]3C/C=C\CCN(C3=O)[C@@H](Cc3ccc(C)cc3)C(=O)N(C)CC(=O)N[C@@H](CCc3ccc(C(F)(F)F)c(Cl)c3)C(=O)N2C1 [PP3189],A (a compound having 10 or more and less than 20 is denoted as A),A (a compound having 10 or more and less than 20 is denoted as A),–,–,–,–
3.5,0.12,–,CCC[C@H]1C(=O)N[C@@H]([C@@H](C)CC)C(=O)N(C)CC(=O)N(C)[C@H]2C/C=C\CCN(C2=O)[C@@H](Cc2ccc(C)cc2)C(=O)N(C)CC(=O)N[C@@H](CCc2cc(Cl)c3sccc3c2)C(=O)N2C[C@H](OCC)C[C@H]2C(=O)NC2(CC(C)(C)C2)C(=O)N(C)[C@@H](C2CCCC2)C(=O)N(C)[C@H](C(=O)N(C)C)CC(=O)N1C [PP2947],B (a compound having 3 or more and less than 10 is denoted as B),B (a compound having 3 or more and less than 10 is denoted as B),–,–,–,–
6.2,–,0.063,CC[C@H](C)[C@@H]1NC(=O)[C@H](C2CC2)N(C)C(=O)C[C@@H](C(=O)N(C)C)N(C)C(=O)[C@H](C2CCCC2)N(C)C(=O)C2(CCC2)N(C)C(=O)[C@@H]2C[C@@H](C)CN2C(=O)[C@H](CCc2cc(F)c(C(F)(F)F)c(F)c2)NC(=O)CN(C)C(=O)[C@H](Cc2ccc(C)cc2)N2CC/C=C\C[C@@H](C2=O)N(C)C(=O)CN(C)C1=O [PP1788],–,–,–,–,B (a compound having 3 or more and less than 10 is denoted as B),B (a compound having 3 or more and less than 10 is denoted as B)
